Converted amounts (≈) assume the structure as drawn. “And” between values parts separate entries of the source, which are not always exact repeats. Equal entries are not always repeated. Where two headings read alike, the source gives them in different places.
What was measured:
[1] = tested on: Aedes aegypti Liverpool strain (insecticide susceptible, LVP) L3 larvae; test: Mosquito larval dose response assay, LVP strain; settings: read-out: Lethal Concentration (LC50) LVP Strain
[2] = tested on: Cryptolestes ferrugineus susceptible strain QCF31; test: Grain protectant bioassay on treated wheat, C. ferrugineus susceptible; assay type: in vivo; settings: for Progeny reduction (%): vs untreated control
[3] = tested on: Rhyzopertha dominica strain QRD1440 (resistant to OP protectants and pyrethroids); test: Grain protectant bioassay on treated wheat, resistant lesser grain borer; settings: for Live adult progeny: mean ± SE; for Progeny reduction (%): vs untreated control
[4] = tested on: M. persicae (green peach aphid) population resistant to carbamates and synthetic pyrethroids; test: Leaf dip bioassay, green peach aphid, resistant population; assay type: in vivo, Myzus persicae; settings: 96 hours exposure; for LC50: Myzus persicae, foliar
Experimental: Each colony was maintained separately on bok choi plants ([…]) within an exclusion cage in a constant temperature room at 24° C. with a photoperiod of 16:8 LD.
Laboratory bioassays were used to determine the efficacy of flavesone against M. persicae following the leaf dip method described in Moores et al. (1994, Pesticide Biochemistry and Physiology, 49, 114-120). A pilot study was first conducted which confirmed that the leaf dip method was appropriate to elicit a clear dose response for Flavocide 500EW against M. persicae, and to determine the appropriate rate range and timing of mortality assessments (scored at 24, 48, 72 & 96 hours) (data not shown).
Bioassays were then conducted to assess the efficacy of flavesone against a susceptible and resistant population of M. persicae, and to calculate LC values. The efficacy of a conventional insecticide, pirimicarb, was tested for comparison. Nine concentrations of flavesone ranging from 1×10^−3 to 10 times the proposed field rate (Table 15), and six concentrations of pirimicarb were serially diluted and tested, along with a water control, against the susceptible and resistant aphid populations. Leaf discs (25 mm diameter) cut from bok choi leaves were submerged for 1 second in the insecticide solutions, or in the water control, and placed adaxial side up on 10 g/L agar in 35 mm petri dishes. Six replicate leaf discs were prepared per treatment. Once leaves were air-dry, eight M. persicae nymphs were transferred to each insecticide-dipped leaf disc using a fine-haired paintbrush.
After aphid introduction, each petri dish was inverted onto a lid containing a 25 mm diameter filter paper to control humidity. All petri dishes were then placed into an incubator held at 18° C.±2° C. with a photoperiod of 16:8 LD cycle. At 48 & 96 hours, aphids were scored as alive (vibrant and moving freely), dead (not moving over a 5 second period), or incapacitated (inhibited movement).
Dose-response curves were generated by plotting percentage mortality against log concentration. Mortality data was analysed using a logistic regression model with random effects. Logistic regression is suited for the analysis of binary response data (i.e. dead/alive) with the random effect component of the model controlling for the non-independence of mortality scores within replicates. […] Population differences were tested by comparing the change in model deviance with and without the population factor (different regression intercepts for each population). Differences in regression slopes between populations were tested by comparing the change in model deviance with and without the population×dose interaction term.

[5] = tested on: Oryzaephilus surinamensis susceptible strain VOS48; test: Grain protectant bioassay on treated wheat, O. surinamensis susceptible; assay type: in vivo; settings: for Progeny reduction (%): vs untreated control
[6] = tested on: Cryptolestes ferrugineus strain QCF73 (resistant to phosphine); test: Grain protectant bioassay on treated wheat, C. ferrugineus resistant; assay type: in vivo; settings: for Progeny reduction (%): vs untreated control
[7] = Cryptolestes ferrugineus, 336 h, 25 mg/kg, 2 weeks, mean ± SE, read-out: Adult mortality (%)
[8] = Cryptolestes ferrugineus, 336 h, 60 mg/kg, 2 weeks, mean ± SE, read-out: Adult mortality (%)
[9] = Example 6, QRD1440, 25 ppm on wheat, replicates A, B, C
[10] = Example 6, QRD1440, 50 ppm on wheat, replicates A, B, C
[11] = Example 6, QRD1440, 75 ppm on wheat, replicates A, B, C
[12] = Example 7, QRD1440, 60 ppm on wheat, replicates A, B, C
[13] = Rhyzopertha dominica, in Triticum aestivum, 336 h, read-out: Adult mortality (%)

## CC(C)C(=O)C1C(=O)C(C)(C)C(=O)C(C)(C)C1=O [Flavesone, 1-isobutyroyl-3,3,5,5-tetramethylcyclohexane-2,4,6-trione]
[1]; 24 h
  LC50: 40.9 µg/mL (≈ 162 µM)
[1]; 48 h
  LC50: 40.5 µg/mL (≈ 161 µM)
[1]; 72 h
  LC50: 39.7 µg/mL (≈ 157 µM)
[2]; 25 mg/kg, mean ± SE
  Live adult progeny: 72.0 ± 20.3
[2]; 25 mg/kg
  Progeny reduction (%): 76.5%
[2]; 25 mg/kg, listed as flavesone
  Progeny reduction (%): ~75%
[2]; 60 mg/kg, mean ± SE
  Live adult progeny: 0.0 ± 0.0
[2]; 60 mg/kg
  Progeny reduction (%): 100%
[2]; [7]
  mortality at 25 mg/kg: 27.5 ± 17.5%
[2]; [8]
  mortality at 60 mg/kg: 90%
[3]; Example 5, QRD1440, 25 ppm on wheat, further 6 weeks, replicates A, B, C
  F1 Progeny count No. dead/total: 0/37 and 0/62 and 0/90
[3]; Example 5, QRD1440, 25 ppm on wheat, replicates A, B, C
  14 Day adult mortality No. dead (total): 19/50 and 11/50 and 14/50
[3]; [9]
  14 day Adult Mortality No. dead/total: 22/50 and 21/50 and 30/50
  F1 Progeny count No. dead/total: 0/20 (2×) and 0/5
[3]; [10]
  14 day Adult Mortality No. dead/total: 47/50 (2×) and 49/50
  F1 Progeny count No. dead/total: 0/0
[3]; [11]
  14 day Adult Mortality No. dead/total: 50/50
  F1 Progeny count No. dead/total: 0/0
[3]; [12]
  14 day Adult Mortality No. dead/total: 50/50
  F1 Progeny count No. dead/total: 0/0
[3]; QRD1440, 25 mg/kg
  Live adult progeny: 23.7 ± 9.0
  Progeny reduction (%): 88.8%
[3]; QRD1440, 25 mg/kg, listed as flavesone
  Progeny reduction (%): 88%
[3]; QRD1440, 60 mg/kg
  Live adult progeny: 0.0 ± 0.0
  Progeny reduction (%): 100%
[3]; [13]
  mortality at 25 mg/kg: 56.7 ± 4.1%
  mortality at 60 mg/kg: 100%
[4]; Resistant population, read-out: LC50 (mg a.i./L)
  LC50: 3150 µg/mL (≈ 12500 µM)
[4]; susceptible and resistant populations, read-out: LC50
  LC50: 2730 to 3150 µg/mL (≈ 10800 to 12500 µM)
[4]; Resistant population
  LC90 (mg a.i./L): 7,929 mg a.i./L
  LC99 (mg a.i./L): 21,708 mg a.i./L
[5]; 25 mg/kg, 2 weeks, mean ± SE
  Adult mortality (%): 22.7 ± 2.4%
[5]; 25 mg/kg, mean ± SE
  Live adult progeny: 1.3 ± 0.7
[5]; 25 mg/kg
  Progeny reduction (%): 99.6%
[5]; 60 mg/kg, 2 weeks, mean ± SE
  Adult mortality (%): 91.3 ± 5.9%
[5]; 60 mg/kg, mean ± SE
  Live adult progeny: 0.0 ± 0.0
[5]; 60 mg/kg
  Progeny reduction (%): 100%
[5]; Oryzaephilus surinamensis, 336 h, 25 mg/kg, 2 weeks, mean ± SE, read-out: Adult mortality (%)
  mortality at 25 mg/kg: 22%
[5]; Oryzaephilus surinamensis, 336 h, 60 mg/kg, 2 weeks, mean ± SE, read-out: Adult mortality (%)
  mortality at 60 mg/kg: 91%
[6]; 25 mg/kg, mean ± SE
  Live adult progeny: 83.7 ± 6.5
[6]; 25 mg/kg
  Progeny reduction (%): 75.7%
[6]; 25 mg/kg, listed as flavesone
  Progeny reduction (%): ~75%
[6]; 60 mg/kg, mean ± SE
  Live adult progeny: 0.0 ± 0.0
[6]; 60 mg/kg
  Progeny reduction (%): 100%
[6]; [7]
  mortality at 25 mg/kg: 3.3 ± 1.3%
[6]; [8]
  mortality at 60 mg/kg: 62%

Reference: patent publication US11259522B2, “Control of resistant pests” (priority 2017, dated 2022)
